The test system of experiment [1] is co-cultured BAMEC and LNCaP cells. The experiment is described as follows: Three-dimensional growth and tube formation assay, BAMEC/LNCaP co-culture on […]. In kind it is cell-based, bovine, human. To be noted: for tube formation: loops / tube formation: units of tubes: 10 μg/ml protein added to medium, 36 hr; for tube formation: loops: control 0; for tube formation: units of tubes: control 73; for branching morphogenesis of endothelial cells: 10 μg/ml protein, BAMEC/LNCaP co-culture. Here is the method:
Three-dimensional Growth and Tube Formation Assay. To analyze in vitro angiogenesis and interactions between epithelial and endothelial cell formation of tubular networks by co-cultured BAMEC and LNCaP cells, a three-dimensional growth and tube formation assay was performed. Briefly, […]® (10 μl) was added to each chamber of the slide (μ-Slide, ibidi, Martinsried, Germany) and gelled by a 30-min incubation at room temperature, after which 15,000 BAMEC and 5000 LNCaP cells were plated onto the gel in 50 μl of Eagle's minimal essential complete medium. In some chambers, full-length galectin-3 or its fragments were added. After 36 hr, three-dimensional structures were observed under phase contrast microscope and photographed. Images were acquired with an Olympus IX71 microscope supporting a Hamamatsu ORCA-ER video camera. Tube formation image analysis was done using the web-based Image Analysis Win-Tube module of Wimasis online software.
Three-dimensional heterotypic co-cultures of epithelial (LNCaP) and endothelial (BAMEC) cells were performed on […]® to study tube formation in the presence of 10 μg/ml galectin-3 and its fragments. […] FIG. 2B presents a quantitative evaluation of the tube formation assay.

Another experiment has as its system LNCaP cells. The experiment is described as follows: Chemotaxis assay (Boyden chamber). Conditions: 10 μg/ml, 5 hr, compared with control or either of the two fragments. In kind it is cell-based, human. Here is the method: Chemotaxis. This assay was performed using a Boyden chamber (Neuroprobe). In the lower chamber, the chemo-attractant […]® (BD Biosciences) alone or mixed with various concentrations of recombinant galectin-3, galectin-3 1-107, or galectin-3 108-250 was added. LNCaP (5×10^4) cells suspended in basic DMEM were loaded in the upper chamber. The two chambers were separated by a polycarbonate filter of 5-micron pore size and incubated in a 37° C. tissue culture incubator for 5 hr, after which the filter was removed, the cells on top of the filter were wiped off, and the migrated cells were fixed, stained using Protocol Hema 3 stain set (Fisher Scientific), and counted under microscope. Each assay was carried out in triplicate.
The effects of galectin-3 1-107 and 108-250 fragments, as well as full-length galectin-3 on migration of LNCaP cells in a chemotaxis assay were also tested.

The test system of experiment [2] is LNCaP, Du145, and PC3M cell lines. The experiment is described as follows: Wound-healing (scratch) assay. The class given is cell-based, human. Conditions: 24 hr, compared with the control. Here is the method: Wound-healing Assay. A wound-healing assay, the scratch assay, was performed according to the protocol published in Liang, et al. (2007), Nat. Protoc. 2, 329-333. Briefly, in this scratch assay 60-mm dishes were coated with ECM and incubated overnight, unbound ECM was removed and the dishes were blocked with bovine serum albumin. Subconfluent growing cells were resuspended in a tissue culture dish by washing cells with PBS, adding versene containing trypsin, and mixing cells with medium containing serum. Cells were then plated onto the prepared 60-mm dish to create a confluent monolayer, and incubated for 6 hr at 37° C.
The cell lines LNCaP (null galectin-3), DU145 (stable clone with reduced galectin-3 expression), and PC3M were used to examine the effect of full-length galectin-3, galectin-3 1-107, and galectin-3 108-250 on prostate cancer cell motility using the scratch assay. The assay was performed with LNCaP, Du145, and PC3M cultured cell lines stimulated by full-length galectin-3, and fragments galectin-3 1-107 and 108-250. A uniform wound was made in each plate using a 1-μl pipette tip. The wound area was observed immediately, then at 24 hr after creation the cells were counted. Cells were grown under identical conditions.

The values below come from patent US20150377889A1, “GALECTIN-3 AS A MARKER FOR PROSTATE CANCER” (Wayne State University, priority 2013, published 2015).

“full-length galectin-3: recombinant full-length human galectin-3 protein (SEQ ID NO:1), overexpressed in Escherichia coli”: in experiment [1], the “tube formation: loops” value is listed as 12, the “tube formation: units of tubes” value was found to be 127 units and the “branching morphogenesis of endothelial cells” value is on record as “induced branching morphogenesis”. Also, in the experiment on LNCaP cells, the “migration of LNCaP cells toward MATRIGEL” value is recorded as “significantly higher”. Moreover, in experiment [2], the “prostate cancer cell motility” value is on record as “promotes prostate cancer cell motility”.
For the substance “galectin-3 108-250: recombinant fragment 108-250 of human galectin-3 (SEQ ID NO:3), contains carbohydrate recognition domain”, in experiment [1], the “tube formation: loops” value was determined as 0, the “tube formation: units of tubes” value stood at 76 units and the “branching morphogenesis of endothelial cells” value is reported as “failed to do so”. Also, the “prostate cancer cell motility” value in experiment [2] is “did not show a significant increase in motility”.
